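Dose response: 5 concentrations. Exposure: 48 h. Format: 96-well plates. Endpoint: linear interpolation; highest concentration if not reached. GI50 marks 50% less growth.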 Active and inactive are the calls of the source. Rule as the data show it: active = GI50 up to about 1.1 µM and inactive = higher.
Key:
Experiment in all cases: NCI anticancer screen, dose series, 48 h
RXF 393 = test system: RXF 393
HOP-62 = test system: HOP-62
SNB-75 = test system: SNB-75
OVCAR-8 = test system: OVCAR-8
M14 = test system: M14
HCC 2998 = test system: HCC 2998
NCI-H522 = test system: NCI-H522
NCI-H23 = test system: NCI-H23
A549 = test system: A549
Hs-578T = test system: Hs-578T
RPMI-8226 = test system: RPMI-8226
PC-3 = test system: PC-3
IGROV-1 = test system: IGROV-1
U-251 = test system: U-251
HOP-92 = test system: HOP-92
EKVX = test system: EKVX
TK-10 = test system: TK-10
BT-549 = test system: BT-549
LOX IMVI = test system: LOX IMVI
OVCAR-4 = test system: OVCAR-4
MCF7 = test system: MCF7
HCT-15 = test system: HCT-15
HCT-116 = test system: HCT-116
UO-31 = test system: UO-31
OVCAR-5 = test system: OVCAR-5
OVCAR-3 = test system: OVCAR-3
COLO 205 = test system: COLO 205
NCI/ADR-RES = test system: NCI/ADR-RES
SK-MEL-28 = test system: SK-MEL-28
SNB-19 = test system: SNB-19
K562 = test system: K562
SN12C = test system: SN12C
UACC-62 = test system: UACC-62
Malme-3M = test system: Malme-3M
MDA-N = test system: MDA-N
SF-295 = test system: SF-295
HL-60 = test system: HL-60
SK-MEL-5 = test system: SK-MEL-5
HT-29 = test system: HT-29
DU-145 = test system: DU-145
MDA-MB-231 = test system: MDA-MB-231
A498 = test system: A498
SF-268 = test system: SF-268
UACC-257 = test system: UACC-257
SW-620 = test system: SW-620
ACHN = test system: ACHN
SK-OV-3 = test system: SK-OV-3
KM12 = test system: KM12
SK-MEL-2 = test system: SK-MEL-2
MOLT-4 = test system: MOLT-4
NCI-H460 = test system: NCI-H460
NCI-H226 = test system: NCI-H226
SF-539 = test system: SF-539
786-0 = test system: 786-0
SR = test system: SR
T47D = test system: T47D
MDA-MB-435 = test system: MDA-MB-435
CAKI-1 = test system: CAKI-1
CCRF-CEM = test system: CCRF-CEM

SMILES: COC1(CC[C@@H](C)COC2OC(CO)C(O)C(O)C2O)O[C@H]2C[C@H]3[C@@H]4CC=C5C[C@@H](OC6OC(CO)C(O)C(OC7OC(CO)C(O)C(O)C7O)C6OC6OC(C)C(O)C(O)C6O)CC[C@]5(C)[C@H]4CC[C@]3(C)[C@H]2[C@@H]1C (some centres not stated)
- GI50 (RXF 393): 5.71 µM (inactive)
- GI50 (HOP-62): 10.4 µM (inactive)
- GI50 (SNB-75): 3.33 µM (inactive)
- GI50 (OVCAR-8): 8.77 µM (inactive)
- GI50 (M14): 2.37 µM (inactive)
- GI50 (HCC 2998): 3.56 µM (inactive)
- GI50 (NCI-H522): 4.62 µM (inactive)
- GI50 (NCI-H23): 14.5 µM (inactive)
- GI50 (A549): 2.68 µM (inactive)
- GI50 (Hs-578T): 8.51 µM (inactive)
- GI50 (RPMI-8226): 32.2 µM (inactive)
- GI50 (PC-3): 6.82 µM (inactive)
- GI50 (IGROV-1): 7.24 µM (inactive)
- GI50 (U-251): 1.89 µM (inactive)
- GI50 (HOP-92): 2.46 µM (inactive)
- GI50 (EKVX): 15.9 µM (inactive)
- GI50 (TK-10): 19.3 µM (inactive)
- GI50 (BT-549): 16.5 µM (inactive)
- GI50 (LOX IMVI): 2.8 µM (inactive)
- GI50 (OVCAR-4): 9.91 µM (inactive)
- GI50 (MCF7): 16 µM (inactive)
- GI50 (HCT-15): 3.28 µM
- GI50 (HCT-116): 6.64 µM (inactive)
- GI50 (UO-31): 4.5 µM (inactive)
- GI50 (OVCAR-5): 7.67 µM (inactive)
- GI50 (OVCAR-3): 16.8 µM (inactive)
- GI50 (COLO 205): 9.04 µM (inactive)
- GI50 (NCI/ADR-RES): 16 µM (inactive)
- GI50 (SK-MEL-28): 5.45 µM (inactive)
- GI50 (SNB-19): 6.37 µM (inactive)
- GI50 (K562): > 20.6 µM (inactive)
- GI50 (SN12C): 10.2 µM (inactive)
- GI50 (UACC-62): 3.19 µM (inactive)
- GI50 (Malme-3M): 3.11 µM (inactive)
- GI50 (MDA-N): 8.63 µM (inactive)
- GI50 (SF-295): 3.48 µM (inactive)
- GI50 (HL-60): 6.19 µM (inactive)
- GI50 (SK-MEL-5): 9.84 µM (inactive)
- GI50 (HT-29): 4.67 µM (inactive)
- GI50 (DU-145): 3.97 µM (inactive)
- GI50 (MDA-MB-231): 0.885 µM (active)
- GI50 (A498): 12.9 µM (inactive)
- GI50 (SF-268): 10.2 µM (inactive)
- GI50 (UACC-257): 11 µM (inactive)
- GI50 (SW-620): 2.6 µM (inactive)
- GI50 (ACHN): 14.5 µM (inactive)
- GI50 (SK-OV-3): 4.01 µM (inactive)
- GI50 (KM12): 2.08 µM (inactive)
- GI50 (SK-MEL-2): 13.7 µM (inactive)
- GI50 (MOLT-4): 16 µM (inactive)
- GI50 (NCI-H460): 3.4 µM (inactive)
- GI50 (NCI-H226): 9.95 µM (inactive)
- GI50 (SF-539): 2.74 µM (inactive)
- GI50 (786-0): 2.75 µM (inactive)
- GI50 (SR): 23.5 µM (inactive)
- GI50 (T47D): 4.67 µM (inactive)
- GI50 (MDA-MB-435): 2.77 µM (inactive)
- GI50 (CAKI-1): 6.35 µM (inactive)
- GI50 (CCRF-CEM): 28.6 µM (inactive)

SMILES: O=C(N1CCN(c2ccccc2)CC1)N(C(=O)C1(c2ccc(Cl)cc2)CCCC1)S(=O)(=O)c1ccccc1
- GI50 (RXF 393): 42.2 µM (inactive)
- GI50 (HOP-62): 29.1 µM (inactive)
- GI50 (SNB-75): 52.2 µM (inactive)
- GI50 (OVCAR-8): 33 µM (inactive)
- GI50 (M14): 21.1 µM (inactive)
- GI50 (HCC 2998): 23.9 µM (inactive)
- GI50 (NCI-H522): 15.4 µM (inactive)
- GI50 (NCI-H23): 26.7 µM (inactive)
- GI50 (A549): 36.2 µM (inactive)
- GI50 (Hs-578T): 29.8 µM (inactive)
- GI50 (RPMI-8226): 38.3 µM (inactive)
- GI50 (PC-3): 26.6 µM (inactive)
- GI50 (U-251): 21.8 µM (inactive)
- GI50 (HOP-92): 32.8 µM (inactive)
- GI50 (EKVX): 21.1 µM (inactive)
- GI50 (TK-10): 41.4 µM (inactive)
- GI50 (BT-549): 27.8 µM (inactive)
- GI50 (LOX IMVI): 21.3 µM (inactive)
- GI50 (OVCAR-4): 24.1 µM (inactive)
- GI50 (MCF7): 26.9 µM (inactive)
- GI50 (HCT-15): 25.1 µM
- GI50 (HCT-116): 22.5 µM (inactive)
- GI50 (UO-31): 32.8 µM (inactive)
- GI50 (OVCAR-5): 24.8 µM (inactive)
- GI50 (OVCAR-3): 31.6 µM (inactive)
- GI50 (COLO 205): 24.7 µM (inactive)
- GI50 (NCI/ADR-RES): 23.7 µM (inactive)
- GI50 (SK-MEL-28): 40.8 µM (inactive)
- GI50 (SNB-19): 28.1 µM (inactive)
- GI50 (K562): 32.4 µM (inactive)
- GI50 (SN12C): 28.3 µM (inactive)
- GI50 (UACC-62): 20.6 µM (inactive)
- GI50 (Malme-3M): 26.4 µM (inactive)
- GI50 (MDA-N): 22.1 µM (inactive)
- GI50 (SF-295): 24.6 µM (inactive)
- GI50 (HL-60): 27.7 µM (inactive)
- GI50 (SK-MEL-5): 19.9 µM (inactive)
- GI50 (HT-29): 27.9 µM (inactive)
- GI50 (DU-145): 38.5 µM (inactive)
- GI50 (MDA-MB-231): 26.6 µM (inactive)
- GI50 (A498): < 0.01 µM (active)
- GI50 (SF-268): 39.9 µM (inactive)
- GI50 (UACC-257): 28.3 µM (inactive)
- GI50 (SW-620): 32 µM (inactive)
- GI50 (ACHN): 14 µM (inactive)
- GI50 (SK-OV-3): 30 µM (inactive)
- GI50 (KM12): 35.9 µM (inactive)
- GI50 (SK-MEL-2): 19.9 µM (inactive)
- GI50 (MOLT-4): 23.3 µM (inactive)
- GI50 (NCI-H460): 30.5 µM (inactive)
- GI50 (NCI-H226): 33.3 µM (inactive)
- GI50 (SF-539): 22.1 µM (inactive)
- GI50 (786-0): 34.5 µM (inactive)
- GI50 (SR): 53.2 µM (inactive)
- GI50 (T47D): 27.7 µM (inactive)
- GI50 (MDA-MB-435): 43.8 µM (inactive)
- GI50 (CAKI-1): 26.5 µM (inactive)
- GI50 (CCRF-CEM): 29.7 µM (inactive)
